In patent publication US20230312578A1, “6H-INDOLO[2,3-B]QUINOXALINE DERIVATIVES USEFUL IN THERAPY” (Vironova Medical AB, priority 2020, published 2023):

What was measured:
Assay type in all cases: cell-based
[1] = tested on: BT-549; test: Human tumor cell line growth assay (SRB); conditions: Breast, BT-549, 48 h; for CC50: read-out: LC50 (the source's name)
[2] = Human tumor cell line growth assay (SRB); conditions: human, A549/ATCC cells (NSCLC), read-out: LC50
[3] = tested on: A549/ATCC; test: Human tumor cell line growth assay (SRB); conditions: Homo sapiens, NSCLC, 48 h
[4] = tested on: MDA-MB-231/ATCC; test: Human tumor cell line growth assay (SRB); conditions: Breast, 48 h; for CC50: read-out: LC50 (the source's name)
[5] = Human tumor cell line growth assay (SRB); conditions: human, HCC-2998 cells (colon), HCC-2998, 48 h, read-out: LC50
[6] = tested on: HCC-2998; test: Human tumor cell line growth assay (SRB); conditions: Homo sapiens; Colon, HCC-2998, 48 h
[7] = Human tumor cell line growth assay (SRB); conditions: human, SNB-75 cells (CNS), SNB-75, 48 h
[8] = tested on: SNB-75; test: Human tumor cell line growth assay (SRB); conditions: Homo sapiens; CNS, SNB-75, 48 h
[9] = tested on: SNB-19; test: Human tumor cell line growth assay (SRB); conditions: Homo sapiens; CNS, SNB-19, 48 h
[10] = Human tumor cell line growth assay (SRB); conditions: human, SNB-19 cells (CNS), SNB-19, 48 h, read-out: LC50
[11] = tested on: SK-MEL-5; test: Human tumor cell line growth assay (SRB); conditions: Homo sapiens; Melanoma, SK-MEL-5, 48 h
[12] = Human tumor cell line growth assay (SRB); conditions: human, SK-MEL-5 cells (melanoma), SK-MEL-5, 48 h
[13] = tested on: OVCAR-4; test: Human tumor cell line growth assay (SRB); conditions: Homo sapiens; Ovarian, OVCAR-4, 48 h
[14] = tested on: HOP-62; test: Human tumor cell line growth assay (SRB); conditions: Homo sapiens; NSCLC, HOP-62, 48 h
[15] = Human tumor cell line growth assay (SRB); conditions: human, HOP-62 cells (NSCLC), HOP-62, 48 h, read-out: LC50
[16] = tested on: T-47D; test: Human tumor cell line growth assay (SRB); conditions: T47D, Breast, 48 h; for CC50: read-out: LC50 (the source's name)
[17] = Human tumor cell line growth assay (SRB); conditions: human, RPMI-8226 cells (leukemia), RPMI-8226, 48 h, read-out: LC50
[18] = tested on: NCI/ADR-RES; test: Human tumor cell line growth assay (SRB); conditions: Ovarian, 48 h; for CC50: read-out: LC50 (the source's name)
[19] = tested on: IGR-OV1; test: Human tumor cell line growth assay (SRB); conditions: Homo sapiens, IGROV-1; Ovarian, IGR-OV1, 48 h
[20] = Human tumor cell line growth assay (SRB); conditions: human, IGR-OV1 cells (ovarian), IGR-OV1, 48 h, read-out: LC50
[21] = tested on: EKVX; test: Human tumor cell line growth assay (SRB); conditions: Homo sapiens, NSCLC, 48 h
[22] = Human tumor cell line growth assay (SRB); conditions: human, EKVX cells (NSCLC), read-out: LC50
[23] = tested on: COLO 205; test: Human tumor cell line growth assay (SRB); conditions: Homo sapiens; Colon, COLO 205, 48 h
[24] = Human tumor cell line growth assay (SRB); conditions: human, COLO 205 cells (colon), COLO 205, 48 h, read-out: LC50
[25] = tested on: MDA-MB-468; test: Human tumor cell line growth assay (SRB); conditions: Breast, MDA-MB-468, 48 h; for CC50: read-out: LC50 (the source's name)
[26] = Human tumor cell line growth assay (SRB), summary over the panel; conditions: human, human tumor cell line panel (most cell lines of the panel); for most cell lines of the panel; read-out: LC50

| Compound | GI50 [1] | CC50 [1] | GI50 [3] | GI50 [4] | GI50 [6] | LC50 (concentration killing 50% of cells) at 48 h [7] | GI50 [8] | GI50 [9] | CC50 at 48 h [10] | GI50 [11] | LC50 (concentration killing 50% of tumour cells) at 48 h [12] | GI50 [13] | GI50 [14] | CC50 at 48 h [15] | GI50 [16] | GI50 [18] | GI50 [19] | CC50 at 48 h [20] | GI50 [21] | GI50 [23] | other results |
| --- | --- | --- | --- | --- | --- | --- | --- | --- | --- | --- | --- | --- | --- | --- | --- | --- | --- | --- | --- | --- | --- |
| Cc1cc2nc3c4cc(N)ccc4n(CCN(C)C)c3nc2cc1C [JBD-136, 6-(2-(dimethylamino)ethyl)-2,3-dimethyl-6H-indolo [2,3-b]quinoxalin-9-amine] | 1.78 µM | 27.9 µM | 0.464 µM | 1.22 µM | 1.02 µM | 24.8 µM | 1.25 µM | 0.767 µM | > 100 µM | 1.69 µM | 5.72 µM | 1.7 µM | 1.14 µM | > 100 µM | 2.26 µM | 0.506 µM | 0.596 µM | > 100 µM | 1.99 µM | 0.418 µM | CC50 at 48 h [2]: > 100 µM; CC50 [4]: 57.5 µM; CC50 at 48 h [5]: 21.9 µM; CC50 [16]: > 100 µM; CC50 at 48 h [17]: 95.2 µM; CC50 [18]: > 100 µM; CC50 at 48 h [22]: > 100 µM; CC50 at 48 h [24]: 83.6 µM; GI50 [25]: 1.03 µM; CC50 [25]: 8.28 µM |
| Cc1cc2nc3c4ccccc4n(CCN(C)C)c3nc2cc1C [B220, 2-(2,3-dimethyl-6H-indolo [2,3-b]quinoxalin-6-yl)-N,N-dimethylethanamine, reference compound] | 2.07 µM | 28.7 µM | 1.28 µM | 1.76 µM | 1.47 µM | 80.2 µM | 1.28 µM | 2.33 µM | 68.6 µM | 1.7 µM | 12 µM | 2.55 µM | 1.11 µM | > 100 µM | 2.8 µM | 1.39 µM | 1.28 µM | 72.4 µM | 2.23 µM | 1.29 µM | CC50 at 48 h [2]: > 100 µM; CC50 [4]: 54.9 µM; CC50 at 48 h [5]: 15.7 µM; CC50 [16]: > 100 µM; CC50 [18]: 90.2 µM; CC50 at 48 h [22]: 83.9 µM; CC50 at 48 h [24]: 41 µM; GI50 [25]: 1.32 µM; CC50 [25]: 9.93 µM |
| Cc1cc2nc3c4cc(O)ccc4n(CCN(C)C)c3nc2cc1C [JBD-139, 6-(2-(dimethylamino)ethyl)-2,3-dimethyl-6H-indolo [2,3-b]quinoxalin-9-ol] | 1.84 µM | > 100 µM | 0.358 µM | 0.544 µM | 0.75 µM | > 100 µM | 0.214 µM | 0.423 µM | > 100 µM | 1.45 µM | 5.33 µM | 0.882 µM | 0.569 µM | > 100 µM | 0.686 µM | 0.436 µM | 0.392 µM | 98.2 µM | 1.1 µM | 0.47 µM | CC50 [18]: > 100 µM; CC50 at 48 h [24]: > 100 µM; GI50 [25]: 0.518 µM; CC50 [25]: > 100 µM |
| Cc1cc2nc3c4cc([N+](=O)[O-])ccc4n(CCN(C)C)c3nc2cc1C [JBA-185, 2-(2,3-dimethyl-9-nitro-6H-indolo[2,3-b]quinoxalin-6-yl)-N,N-dimethylethanamine] | 1.95 µM | > 100 µM | 0.387 µM | 0.495 µM | 0.756 µM | 5.45 µM | 0.447 µM | 0.493 µM | > 100 µM | 1.04 µM | 4.77 µM | 0.452 µM | 0.507 µM | > 100 µM | 0.499 µM | 0.415 µM | 0.357 µM | > 100 µM | 0.477 µM | 0.36 µM | CC50 at 48 h [2]: 94.4 µM; CC50 [4]: > 100 µM; CC50 at 48 h [26]: > 100 µM; CC50 at 48 h [5]: 6.53 µM; CC50 [16]: > 100 µM; CC50 at 48 h [17]: > 100 µM; CC50 [18]: > 100 µM; CC50 at 48 h [22]: > 100 µM; CC50 at 48 h [24]: > 100 µM; GI50 [25]: 0.374 µM; CC50 [25]: 5.3 µM |
| COc1ccc2c(c1)c1nc3cc(C)c(C)cc3nc1n2CCN(C)C [JBA-094, 2-(9-methoxy-2,3-dimethyl-6H-indolo[2,3-b]quinoxalin-6-yl)-N,N-dimethylethanamine] | 1.65 µM | 7.09 µM | 0.482 µM | 1.14 µM | 1.08 µM | 23.8 µM | 1.23 µM | 0.719 µM | 6.34 µM | 1.66 µM | 5.58 µM | 1.02 µM | 1.19 µM | > 100 µM | 1.32 µM | 0.588 µM | 0.396 µM | 5.41 µM | 1.28 µM | 0.561 µM | CC50 at 48 h [2]: 7.97 µM; CC50 [4]: 6.39 µM; CC50 at 48 h [5]: 6.32 µM; CC50 [16]: > 100 µM; CC50 at 48 h [22]: 6.8 µM; GI50 [25]: 0.749 µM; CC50 [25]: 6.9 µM |
